Test results published in patent publication US8765727B2, “Macrocyclic compounds and their use as kinase inhibitors” (Incyte Corporation, priority 2009, dated 2014).
Counter-ions that a name gives are not always drawn. Like-named read-outs stand apart in the source and are kept apart here.

Key:
Assay type in all cases: biochemical
TYK2 = TYK2 (Homo sapiens (Human), UniProt P29597); assay: TYK2 assay (as described by Thompson et al.)
Text: The invention will be described in greater detail by way of specific examples. The following examples are offered for illustrative purposes, and are not intended to limit the invention in any manner. Those of skill in the art will readily recognize a variety of non-critical parameters which can be changed or modified to yield essentially the same results. In some instances where the compounds of the examples were isolated by preparative HPLC in the presence of trifluoroacetic acid (TFA) or other acid, the compound may have been obtained as the corresponding salt. […] Certain compounds described in Tables 1 and in the Example section were tested for inhibitory activity of JAK/ALK targets according to assays such as those described herein or those known in the art [e.g., ALK assays described in WO 04/079326; and TYK2 assays described by James E. Thompson et. al, “Photochemical preparation of a pyridone containing tetracycle: A JAK protein kinase inhibitor,” Bioorganic & Medicinal Chemistry Letters, Volume 12, Issue 8, 22 Apr. 2002, Pages 1219-1223]. […] Some exemplary data of the compounds of the invention are shown in Table 1 in the experimental section.

[1] = target: human JAK2 (a.a. 828-1132) catalytic domain (Homo sapiens (Human), UniProt O60674); assay: In vitro JAK kinase assay (HTRF), JAK2
Experimental: One or more compounds herein were tested for inhibitory activity of JAK targets according to the following in vitro assay described in Park et al., Analytical Biochemistry 1999, 269, 94-104. The catalytic domains of human JAK1 (a.a. 837-1142), JAK2 (a.a. 828-1132) and JAK3 (a.a. 781-1124) with an N-terminal His tag were expressed using baculovirus in insect cells and purified. The catalytic activity of JAK1, JAK2 or JAK3 was assayed by measuring the phosphorylation of a biotinylated peptide. The phosphorylated peptide was detected by homogenous time resolved fluorescence (HTRF). […] Binding to the Europium labeled antibody took place for 40 minutes and HTRF signal was measured on a Fusion plate reader (Perkin Elmer, Boston, Mass.).

[2] = target: Recombinant Human Anaplastic Lymphoma Kinase (Homo sapiens (Human), UniProt Q9UM73); assay: ALK HTRF kinase assay; conditions: 90 μM ATP, 0.25 nM enzyme, 2 hours at 25° C.
Experimental: Materials: Recombinant Human Anaplastic Lymphoma Kinase was purchased from Invitrogen, Carlsbad, Calif. Peptide substrate (Biotin-[…]-amide) was custom synthesized at EZBiolab, Westfield, Ind. Streptavidin conjugated SureLight-Allophycocyania and LANCE Eu-W1024 labeled anti-phosphotyrosine antibody were from Perkin-Elmer, Boston, Mass. Microplates were from Corning Inc., Acton, Mass. All other reagents were from Sigma, St. Louis, Mo.
HTRF kinase assay: 40 μL reactions were run in black 384 well polystyrene plates in assay buffer (50 mM Tris, pH 7.8, 100 mM NaCI, 0.1 mg/mL BSA, 5 mM DTT), containing 0.5 μM Biotinylated peptide substrate, 10 mM MgCl2, 90 μM ATP, and 0.25 nM enzyme for 2 hours at 25° C. Reactions were stopped by addition of 20 μL assay buffer supplemented with an additional 50 mM NaCl, 0.4 mg/mL BSA, 45 mM EDTA, 4.5 nM LANCE Eu-W1024 labeled anti-phosphotyrosine antibody and 200 nM streptavidin conjugated SureLight-allophycocyanin. Plates were read in Fusion α-FP instrument (Perkin-Elmer). The concentrations needed to reach 50% inhibition, the IC50 value, were determined by fitting the assay signal to the following equation using Graphpad Prizm. Signal=Bottom+(Top−Bottom)/(1+10^((Log(IC50)−Log [I])*Hill Slope) Bottom and Top refer to the post and pre-transition baselines, respectively.

[3] = target: human JAK3 (a.a. 781-1124) catalytic domain (Homo sapiens (Human), UniProt P52333); assay: In vitro JAK kinase assay (HTRF), JAK3; conditions: 3 μM ATP, 500 nM peptide, room temperature 1 hr
Experimental: (§1) One or more compounds herein were tested for inhibitory activity of JAK targets according to the following in vitro assay described in Park et al., Analytical Biochemistry 1999, 269, 94-104. The catalytic domains of human JAK1 (a.a. 837-1142), JAK2 (a.a. 828-1132) and JAK3 (a.a. 781-1124) with an N-terminal His tag were expressed using baculovirus in insect cells and purified. The catalytic activity of JAK1, JAK2 or JAK3 was assayed by measuring the phosphorylation of a biotinylated peptide. The phosphorylated peptide was detected by homogenous time resolved fluorescence (HTRF). […] The ATP concentration in the reactions was 90 μM for JAK1, 30 μM for JAK2 and 3 μM for JAK3. Reactions were carried out at room temperature for 1 hr and then stopped with 20 μL 45 mM EDTA, 300 nM SA-APC, 6 nM Eu-Py20 in assay buffer (Perkin Elmer, Boston, Mass.). Binding to the Europium labeled antibody took place for 40 minutes and HTRF signal was measured on a Fusion plate reader (Perkin Elmer, Boston, Mass.).

[4] = target: human JAK1 (a.a. 837-1142) catalytic domain (Homo sapiens, UniProt P23458); assay: In vitro JAK kinase assay (HTRF), JAK1; conditions: 90 μM ATP, 500 nM peptide, room temperature 1 hr
Experimental: as §1

[5] = 30 μM ATP, 500 nM peptide, room temperature 1 hr

Chain of human JAK3 (a.a. 781-1124) catalytic domain (P52333 781-1124): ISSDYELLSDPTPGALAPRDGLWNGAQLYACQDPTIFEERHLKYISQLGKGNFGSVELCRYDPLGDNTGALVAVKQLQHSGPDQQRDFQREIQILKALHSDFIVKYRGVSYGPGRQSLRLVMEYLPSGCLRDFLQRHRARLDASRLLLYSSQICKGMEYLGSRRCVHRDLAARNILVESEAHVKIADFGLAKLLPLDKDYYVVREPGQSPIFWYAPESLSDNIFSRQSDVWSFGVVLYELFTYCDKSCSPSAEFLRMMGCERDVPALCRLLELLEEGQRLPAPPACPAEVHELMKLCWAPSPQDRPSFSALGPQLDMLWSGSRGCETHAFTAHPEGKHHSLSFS
Chain of Recombinant Human Anaplastic Lymphoma Kinase (Q9UM73 19-1620): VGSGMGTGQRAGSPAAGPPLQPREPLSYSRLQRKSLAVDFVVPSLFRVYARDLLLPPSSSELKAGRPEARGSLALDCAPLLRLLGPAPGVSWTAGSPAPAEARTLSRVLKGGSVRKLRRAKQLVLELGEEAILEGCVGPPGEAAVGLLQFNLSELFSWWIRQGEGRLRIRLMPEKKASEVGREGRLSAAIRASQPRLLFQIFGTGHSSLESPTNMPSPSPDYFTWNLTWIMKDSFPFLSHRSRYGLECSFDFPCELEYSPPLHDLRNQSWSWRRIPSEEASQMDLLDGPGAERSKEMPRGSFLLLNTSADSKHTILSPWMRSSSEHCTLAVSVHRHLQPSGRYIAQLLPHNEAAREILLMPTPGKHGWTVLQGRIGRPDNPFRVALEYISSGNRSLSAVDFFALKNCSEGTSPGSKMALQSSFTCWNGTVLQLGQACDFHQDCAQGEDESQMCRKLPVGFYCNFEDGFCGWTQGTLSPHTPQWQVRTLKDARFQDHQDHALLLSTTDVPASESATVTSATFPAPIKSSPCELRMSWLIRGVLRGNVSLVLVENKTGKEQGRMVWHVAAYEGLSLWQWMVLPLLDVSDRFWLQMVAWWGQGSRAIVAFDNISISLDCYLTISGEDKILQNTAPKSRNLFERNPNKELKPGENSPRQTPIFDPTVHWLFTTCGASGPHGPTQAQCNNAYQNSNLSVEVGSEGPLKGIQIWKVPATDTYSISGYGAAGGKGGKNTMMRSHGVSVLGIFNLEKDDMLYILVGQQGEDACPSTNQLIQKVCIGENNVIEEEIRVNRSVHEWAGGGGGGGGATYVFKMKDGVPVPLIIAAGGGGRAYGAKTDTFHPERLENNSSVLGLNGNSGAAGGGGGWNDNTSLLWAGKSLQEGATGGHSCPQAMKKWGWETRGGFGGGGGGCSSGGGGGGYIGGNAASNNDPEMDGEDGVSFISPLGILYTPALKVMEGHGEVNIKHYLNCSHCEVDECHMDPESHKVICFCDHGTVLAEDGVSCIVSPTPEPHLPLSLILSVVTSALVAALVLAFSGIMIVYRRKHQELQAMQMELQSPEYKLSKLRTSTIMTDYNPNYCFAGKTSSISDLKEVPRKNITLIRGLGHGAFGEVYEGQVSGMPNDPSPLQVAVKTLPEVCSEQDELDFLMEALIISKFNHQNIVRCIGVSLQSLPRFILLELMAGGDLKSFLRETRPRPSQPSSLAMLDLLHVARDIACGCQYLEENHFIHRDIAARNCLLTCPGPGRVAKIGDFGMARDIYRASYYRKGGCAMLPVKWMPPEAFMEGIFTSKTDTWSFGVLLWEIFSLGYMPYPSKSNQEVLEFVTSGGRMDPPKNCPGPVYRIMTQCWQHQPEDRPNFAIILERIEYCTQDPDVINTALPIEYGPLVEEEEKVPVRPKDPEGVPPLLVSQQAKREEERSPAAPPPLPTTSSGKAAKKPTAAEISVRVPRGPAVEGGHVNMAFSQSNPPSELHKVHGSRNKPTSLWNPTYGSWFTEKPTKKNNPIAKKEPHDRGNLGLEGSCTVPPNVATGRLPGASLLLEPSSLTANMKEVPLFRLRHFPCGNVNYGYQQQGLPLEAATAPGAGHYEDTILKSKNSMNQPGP
Chain of human JAK2 (a.a. 828-1132) catalytic domain (O60674 828-1132): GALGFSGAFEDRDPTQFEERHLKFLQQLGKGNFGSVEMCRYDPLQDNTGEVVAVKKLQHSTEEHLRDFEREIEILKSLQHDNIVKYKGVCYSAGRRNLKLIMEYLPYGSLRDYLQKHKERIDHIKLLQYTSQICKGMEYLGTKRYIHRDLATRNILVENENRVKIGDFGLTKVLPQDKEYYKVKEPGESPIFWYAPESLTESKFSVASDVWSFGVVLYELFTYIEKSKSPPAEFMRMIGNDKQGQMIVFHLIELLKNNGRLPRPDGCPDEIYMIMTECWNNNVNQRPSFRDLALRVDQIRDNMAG
Chain of TYK2 (P29597 whole entry, species assumed): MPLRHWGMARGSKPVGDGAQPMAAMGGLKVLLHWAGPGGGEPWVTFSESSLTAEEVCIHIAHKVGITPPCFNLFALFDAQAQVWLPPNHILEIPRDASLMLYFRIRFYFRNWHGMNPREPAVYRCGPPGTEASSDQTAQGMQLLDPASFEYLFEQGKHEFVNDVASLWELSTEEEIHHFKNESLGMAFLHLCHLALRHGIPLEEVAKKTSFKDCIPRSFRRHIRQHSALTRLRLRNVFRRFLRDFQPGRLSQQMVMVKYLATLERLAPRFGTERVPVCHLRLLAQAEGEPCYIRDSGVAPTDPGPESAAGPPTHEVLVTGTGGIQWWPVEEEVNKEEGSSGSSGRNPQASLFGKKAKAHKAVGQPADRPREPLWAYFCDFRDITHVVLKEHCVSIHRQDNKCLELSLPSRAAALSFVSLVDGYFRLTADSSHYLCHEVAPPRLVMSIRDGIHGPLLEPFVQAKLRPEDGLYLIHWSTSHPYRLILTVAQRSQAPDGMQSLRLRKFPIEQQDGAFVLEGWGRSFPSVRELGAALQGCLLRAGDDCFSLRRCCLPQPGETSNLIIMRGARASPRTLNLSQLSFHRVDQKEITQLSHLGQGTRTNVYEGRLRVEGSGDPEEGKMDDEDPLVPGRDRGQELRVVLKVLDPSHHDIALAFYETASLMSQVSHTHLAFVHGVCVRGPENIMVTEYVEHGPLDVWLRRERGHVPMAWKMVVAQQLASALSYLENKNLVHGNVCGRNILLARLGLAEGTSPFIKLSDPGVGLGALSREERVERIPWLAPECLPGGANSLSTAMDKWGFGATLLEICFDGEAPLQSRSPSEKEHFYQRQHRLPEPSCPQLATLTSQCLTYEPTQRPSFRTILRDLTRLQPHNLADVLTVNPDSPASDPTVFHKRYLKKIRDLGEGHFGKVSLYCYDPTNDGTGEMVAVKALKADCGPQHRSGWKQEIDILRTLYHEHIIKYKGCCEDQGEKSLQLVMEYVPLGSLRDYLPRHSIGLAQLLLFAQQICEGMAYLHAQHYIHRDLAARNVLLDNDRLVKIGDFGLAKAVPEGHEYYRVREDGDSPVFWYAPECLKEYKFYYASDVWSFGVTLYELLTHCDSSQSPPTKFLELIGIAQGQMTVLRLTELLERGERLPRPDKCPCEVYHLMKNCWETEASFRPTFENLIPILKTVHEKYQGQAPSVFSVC

Clc1cnc2nc1NCc1cccc(c1)OCc1cccc(c1)N2 [Example 1, 6-Chloro-15-oxa-2,4,8,23-tetraazatetracyclo[15.3.1.1(3,7).1(10,14)]tricosa-1(21),3(23),4,6,10(22),11,13,17,19-nonaene trifluoroacetate]
IC50 (TYK2): 400 nM
IC50 [1]: 49 nM
IC50 [2]: > 1000 nM
IC50 [3]: 17 nM
IC50 [4]: 51 nM

Clc1cnc2nc1NCc1cccc(c1)OCCc1cccc(c1)N2 [Example 2, 6-Chloro-15-oxa-2,4,8,24-tetraazatetracyclo[16.3.1.1(3,7).1(10,14)]tetracosa-1(22),3(24),4,6,10(23),11,13,18,20-nonaene trifluoroacetate]
IC50 (TYK2): 35 nM
IC50 [1, 5]: 10 nM
IC50 [2]: 1530 nM
IC50 [3]: 9.2 nM
IC50 [4]: 13 nM

O=S1(=O)Nc2cccc(c2)CNc2nc(ncc2Cl)Nc2cccc1c2 [Example 3, 6-Chloro-16-thia-2,4,8,15,23-pentaazatetracyclo[15.3.1.1(3,7).1(10,14)]tricosa-1(21),3(23),4,6,10(22),11,13,17,19-nonaene 16,16-dioxide trifluoroacetate]
IC50 (TYK2): 830 nM
IC50 [2]: > 10000 nM
IC50 [3]: 325 nM
IC50 [4]: 300 nM

O=C1Nc2cccc(c2)CNc2nc(ncc2Cl)Nc2cccc1c2 [Example 4, 6-Chloro-2,4,8,15,23-pentaazatetracyclo[15.3.1.1(3,7).1(10,14)]tricosa-1(21),3(23),4,6,10(22),11,13,17,19-nonaen-16-one trifluoroacetate]
IC50 (TYK2): > 1000 nM
IC50 [1, 5]: 104 nM
IC50 [2]: > 10000 nM
IC50 [3]: 21 nM
IC50 [4]: 96 nM

Clc1cnc2nc1NCc1cccc(c1)OCCCc1cccc(c1)N2 [Example 5, 6-Chloro-15-oxa-2,4,8,25-tetraazatetracyclo[17.3.1.1(3,7).1(10,14)]pentacosa-1(23),3(25),4,6,10(24),11,13,19,21-nonaene trifluoroacetate]
IC50 (TYK2): 25 nM
IC50 [1]: 1.9 nM
IC50 [2]: 706 nM
IC50 [3]: 2.4 nM
IC50 [4]: 4.2 nM

C[C@H]1Nc2nc(ncc2Cl)Nc2cccc(c2)COc2cccc1c2 [Example 6, (9R)-6-Chloro-9-methyl-15-oxa-2,4,8,23-tetraazatetracyclo[15.3.1.1(3,7).1(10,14)]tricosa-1(21),3(23),4,6,10(22),11,13,17,19-nonaene trifluoroacetate]
IC50 (TYK2): > 1000 nM
IC50 [1, 5]: 350 nM
IC50 [2]: > 10000 nM
IC50 [3]: 140 nM
IC50 [4]: 346 nM

Clc1cnc2nc1NCc1cccc(c1)OCCOc1cccc(c1)N2 [Example 7, 6-Chloro-15,18-dioxa-2,4,8,25-tetraazatetracyclo[17.3.1.1(3,7).1(10,14)]pentacosa-1(23),3(25),4,6,10(24),11,13,19,21-nonaene trifluoroacetate]
IC50 (TYK2): 43 nM
IC50 [1, 5]: 8.3 nM
IC50 [2]: 2050 nM
IC50 [3]: 6.4 nM
IC50 [4]: 16 nM

Clc1cnc2nc1NCCc1cccc(c1)OCc1cccc(c1)N2 [Example 8, 19-Chloro-9-oxa-2,17,21,22-tetraazatetracyclo[16.3.1.1(3,7).1(10,14)]tetracosa-1(22),3(24),4,6,10(23),11,13,18,20-nonaene]
IC50 (TYK2): 438 nM
IC50 [2]: > 10000 nM
IC50 [3]: 300 nM
IC50 [4]: 600 nM

Clc1cnc2nc1NCCc1cccc(c1)OCCc1cccc(c1)N2 [Example 9, 6-Chloro-16-oxa-2,4,8,25-tetraazatetracyclo[17.3.1.1(3,7).1(11,15)]pentacosa-1(23),3(25),4,6,11(24),12,14,19,21-nonaene]
IC50 (TYK2): 53 nM
IC50 [1, 5]: 23 nM
IC50 [2]: 1230 nM
IC50 [3]: 55 nM
IC50 [4]: 28 nM

Clc1cnc2nc1NCCCc1cccc(c1)OCc1cccc(c1)N2 [Example 10, 20-Chloro-9-oxa-2,18,22,23-tetraazatetracyclo[17.3.1.1(3,7).1(10,14)]pentacosa-1(23),3(25),4,6,10(24),11,13,19,21-nonaene]
IC50 (TYK2): 237 nM
IC50 [1, 5]: 117 nM
IC50 [2]: > 1000 nM
IC50 [3]: 180 nM
IC50 [4]: 122 nM

C[C@@H]1Nc2nc(ncc2Cl)Nc2cccc(c2)COc2cccc1c2 [Example 11, (9S)-6-Chloro-9-methyl-15-oxa-2,4,8,23-tetraazatetracyclo[15.3.1.1(3,7).1(10,14)]tricosa-1(21),3(23),4,6,10(22),11,13,17,19-nonaene trifluoroacetate]
IC50 (TYK2): > 1000 nM
IC50 [1, 5]: > 1000 nM
IC50 [2]: > 10000 nM
IC50 [3]: > 1000 nM
IC50 [4]: > 1000 nM

Clc1cnc2nc1NCCc1cccc(c1)OCCCc1cccc(c1)N2 [Example 12, 6-Chloro-16-oxa-2,4,8,26-tetraazatetracyclo[18.3.1.1(3,7).1(11,15)]hexacosa-1(24),3(26),4,6,11(25),12,14,20,22-nonaene]
IC50 (TYK2): 400 nM
IC50 [2]: > 10000 nM
IC50 [3]: 315 nM
IC50 [4]: 300 nM

Clc1cnc2nc1NCCCc1cccc(c1)OCCc1cccc(c1)N2 [Example 13, 21-Chloro-10-oxa-2,19,23,24-tetraazatetracyclo[18.3.1.1(3,7).1(11,15)]hexacosa-1(24),3(26),4,6,11(25),12,14,20,22-nonaene]
IC50 (TYK2): 106 nM
IC50 [1, 5]: 25 nM
IC50 [2]: > 10000 nM
IC50 [3]: 62 nM
IC50 [4]: 32 nM

Clc1cnc2nc1NCc1cc(ccc1Br)OCCCc1cccc(c1)N2 [Example 14, 11-Bromo-6-chloro-15-oxa-2,4,8,25-tetraazatetracyclo[17.3.1.1(3,7).1(10,14)]pentacosa-1(23),3(25),4,6,10(24),11,13,19,21-nonaene]
IC50 (TYK2): 300 nM
IC50 [1, 5]: 91 nM
IC50 [2]: 8200 nM
IC50 [3]: 57 nM
IC50 [4]: 100 nM

Clc1cnc2nc1NCc1cc(ccc1-c1ccccc1)OCCCc1cccc(c1)N2 [Example 15, 6-Chloro-11-phenyl-15-oxa-2,4,8,25-tetraazatetracyclo[17.3.1.1(3,7).1(10,14)]pentacosa-1(23),3(25),4,6,10(24),11,13,19,21-nonaene]
IC50 (TYK2): 400 nM
IC50 [1, 5]: 41 nM
IC50 [2]: > 1000 nM
IC50 [3]: 31 nM
IC50 [4]: 81 nM

Clc1cnc2nc1NCc1cc(Br)cc(c1)OCCCc1cccc(c1)N2 [Example 16, 12-Bromo-6-chloro-15-oxa-2,4,8,25-tetraazatetracyclo[17.3.1.1(3,7).1(10,14)]pentacosa-1(23),3(25),4,6,10(24),11,13,19,21-nonaene]
IC50 (TYK2): 149 nM
IC50 [1, 5]: 5 nM
IC50 [2]: 280 nM
